Columns and labels:
Pancreatic CSCs [1] = assay: colony formation in soft agar; format: cell-based, human; settings: 21 days
Experimental: (A) Pancreatic CSCs were seeded in suspension and treated with EGCG (0-60 μM) for 7 days. Pictures of spheroids formed in suspension were taken by a microscope. (B) Pancreatic CSCs were seeded in suspension and treated with EGCG (0-60 μM) for 7 days. At the end of incubation period, spheroids were collected, and dissociated with Accutase (Innovative Cell Technologies, Inc.). For secondary spheroids, cells were reseeded and treated with EGCG (0-60 μM) for 7 days. Cell viability was measured by trypan blue assay. […] Pancreatic CSCs were seeded in soft agar and treated with various doses of EGCG and incubated at […] for 21 days. At the end of incubation period, colonies were counted.
(A) Effects of EGCG and quercetin on spheroid and colony formation. […] CSCs were seeded in suspension and treated with EGCG (0-60 μM) with or without quercetin (20 μM) for 7 days. At the end of incubation period, all the spheroids were collected and resuspended. Cell viability was measured by trypan blue assay. […] Pancreatic CSCs were seeded in soft agar and treated with various doses of EGCG (0-60 μM) with or without quercetin (20 μM) and incubated at […] for 21 days. At the end of incubation period, colonies were counted. […] (B) Effects of EGCG and quercetin on invasion and migration. Upper panel, Matrigel invasion assay. CSCs were plated onto the Matrigel-coated membrane in the top chamber of the transwell and treated with EGCG (0-60 μM) with or without quercetin (20 μM) for 48 hrs. Cells invaded to the lower chambered were fixed with methanol, stained with crystal violet and counted. […] Lower panel, Transwell migration assay. Pancreatic CSCs were plated in the top chamber of the transwell and treated with EGCG (0-60 μM) with or without quercetin (20 μM) for 48 hrs. Cells migrated to the lower chambered were fixed with methanol, stained with crystal violet and counted. […] CSCs were seeded in suspension and treated with EGCG (0-60 μM) with or without quercetin (20 μM) for 7 days. At the end of incubation period, all the spheroids were collected.
At the end of incubation period, all the spheroids were collected and resuspended. Cell viability was measured by trypan blue assay. […] At the end of incubation period, colonies were counted.

Pancreatic CSCs [2] = assay: cell viability, trypan blue, Vi-CELL analyzer; format: cell-based, human; settings: 3 days
Experimental: Pancreatic CSCs were treated with resveratrol (0-20 μM), curcumin (0-20 μM), honokiol (0-20 μM) and diallyl trisulphide (0-20 μM) for 3 days, and cell viability was measured by staining with trypan blue using Vi-CELL analyzer (Beckman Counter).
Pancreatic CSCs were treated with sulforaphane (0-20 μM), rottlerin (0-2 μM), EGCG (0-60 μM) and embelin (0-5 μM) for 3 days, and cell viability was measured by staining with trypan blue using Vi-CELL analyzer (Beckman Counter).
(A) Pancreatic CSCs were treated with SAHA (3 and 5 μM) and 5-Aza-dc (2 and 4 μM) and cell viability was measured at 48 h by staining with trypan blue using Vi-CELL analyzer (Beckman Counter). (B) Pancreatic CSCs were untreated (a) or treated with SAHA (b) or 5-Aza-dC (c) for 48 h, and apoptosis was measured by staining with annexin-PI using Accuri Flow Cytometer. (C) Caspase-3/7 activity was measured in pancreatic CSCs treated with SAHA (0.5 and 2 μM) or 5-Aza-dC (1 and 3 μM) for 25 h.
Pancreatic CSCs were treated with resveratrol (0-20 μM), curcumin (0-20 μM), honokiol (0-20 μM), and diallyl trisulphide (0-20 μM) for 3 days and cell viability was measured by staining with trypan blue using Vi-CELL analyzer. The results of those studies are illustrated in FIG. 27.
Pancreatic CSCs were treated with sulforaphane (0-20 μM), rottlerin (0-2 μM), EGCG (0-60 μM), and embelin (0-5 μM) for 3 days and cell viability was measured by staining with trypan blue using Vi-CELL analyzer. The results of those studies are illustrated in FIG. 28.
Pancreatic CSCs were treated with SAHA […] Vorinostat (3 and 5 μM) and 5-Aza-2′-deoxycytidine (5-Aza-dC, 2 and 4 μM) and cell viability was measured at 48 hours by staining with trypan blue using Vi-CELL analyzer. The results of those studies are illustrated in FIG. 31A.

[3] = EGCG 0-60 μM with or without quercetin 20 μM

| SMILES | colony formation (Pancreatic CSCs [1]; SFN with or without quercetin) | cell viability (Pancreatic CSCs [2]) | colony formation (Pancreatic CSCs [1]; [3]) | growth of colonies (Pancreatic CSCs [1]; EGCG) |
| --- | --- | --- | --- | --- |
| C[S+]([O-])CCCCN=C=S (centres unmarked) [sulforaphane] | inhibited the cell viability and colony formation of pancreatic CSCs in a dose-dependent manner | inhibit cell viability | – | – |
| O=c1c(O)c(-c2ccc(O)c(O)c2)oc2cc(O)cc(O)c12 [quercetin] | effective alone | – | effective alone | – |
| O=C(O[C@@H]1Cc2c(O)cc(O)cc2O[C@@H]1c1cc(O)c(O)c(O)c1)c1cc(O)c(O)c(O)c1 [EGCG, epigallocatechin gallate] | – | inhibit cell viability | inhibited cell viability in spheroids, colony formation, migration and invasion by CSCs in a dose-dependent manner | inhibited the growth of colonies in a dose-dependent manner |
| CC(=O)c1c(O)c(C)c(O)c(Cc2c(O)c3c(c(C(=O)/C=C/c4ccccc4)c2O)OC(C)(C)C=C3)c1O [rottlerin] | – | inhibit cell viability | – | – |
